Results published in patent US20210386787A1, “Hematopoietic Stem and Progenitor Cell Expansion System” (LIFE TECHNOLOGIES CORPORATION, priority 2018, published 2021).

System: CD34^+ mPB cells
Assay: Effect of garcinol and VPA on medium performance: 7-day expansion of CD34+ mPB cells in medium ± VPA or garcinol
Assay type: cell-based
Parameters: key to % CD34^+CD90^+ / Fold TNC / % CD34^+ / Fold CD34^+: (+) is baseline; (++) or greater improvement; (*) denotes no data (the cells died when garcinol was added to ACF)
Settings: for % CD34^+CD90^+ / Fold TNC / % CD34^+ / Fold CD34^+: day 7, three donors
Description: In vitro expansion. Enriched CD34^+ cells from three donors of human mobilized peripheral blood (mPB, AllCells) were cultured in the following serum free media: HSC Medium (as provided herein), and the commercially available Stem Cell Growth Medium (SCGM, CellGenix GmbH), STEMSPAN™ Animal Component Free (ACF, STEMCELL Technologies), and STEMPRO™ 34 (Thermo Fisher Scientific). All media were supplemented with 100 ng/mL SCF, 100 ng/mL FLT-3L, 100 ng/mL TPO, 50 ng/mL IL-3, and 20 ng/mL IL-6 (all provided by Thermo Fisher Scientific). HSC expansion was initiated by culturing 5×10^3 CD34^+ cells/mL in a 48 well plate for 7 days in a humidified 37° C., 5% CO2 incubator. At day 7, total nucleated cell (TNC) number and % viability were assessed using a Countess II cell counter (Thermo Fisher Scientific), and cell phenotype was performed by flow cytometry.
Flow cytometry analysis. TNC were washed in phosphate-buffered saline (PBS) and incubated for 20 minutes at room temperature with LIVE/DEAD® Fixable Yellow stain in PBS. Cells were washed in flow cytometry staining buffer, and incubated with a cocktail of monoclonal antibodies against human cell surface antigens: CD34 PE-Cy7, CD90 APC, CD45RA Pacific Blue, for 30 minutes at 4° C. Cells were analyzed on a Attune NxT flow cytometer (Thermo Fisher Scientific), and FLOWJO® Software (version 7.6.5 Becton Dickinson).
Effect of small molecules to medium performance. To assess the contribution of valproic acid (VPA) and garcinol to competitor media, the small molecules were added to SCGM and STEMSPAN™ ACF either in combination or individually at the final concentration present in HSC Medium. To address whether there is a reduction in performance of HSC Medium when the small molecules were excluded from the formulation, either VPA or garcinol were removed during manufacture. CD34^+ mPB cells from three donors were cultured as described above (Example 1) in medium±VPA or garcinol, and compared with HSC medium, STEMSPAN™ ACF, SCGM or STEMSPAN™ ACF with STEMSPAN™ CD34^+ Expansion Supplement (10×). At day 7, cells were assessed for TNC, % viability, CD34^+, CD34^+CD90^+CD45RA^− cells as described above. To pool data points (CD34^+ expansion, TNC expansion) from the three donors, all conditions were normalized to SCGM media the standard error calculated. For pooling of % CD34^+ and % CD34^+CD90^+CD45RA^− data points in the three donors, the values were averaged and standard error calculated.

[1] = in HSC Medium made with the named small molecule(s) only
[2] = small molecule(s) added to SCGM
[3] = small molecule(s) added to ACF (STEMSPAN ACF)

C=C(C)[C@@H](CC=C(C)C)C[C@@]12C[C@@H](CC=C(C)C)C(C)(C)[C@@](CC=C(C)C)(C(=O)C(C(=O)c3ccc(O)c(O)c3)=C1O)C2=O [Garcinol, garcinol]
% CD34^+CD90^+ [1]: + | Fold TNC [1]: + | % CD34^+ [2]: + | % CD34^+CD90^+ [2]: + | Fold CD34^+ [2]: + | Fold TNC [2]: +

CCCC(CCC)C(=O)O [VPA, valproic acid]
performance (HSC expansion) (added to ACF): boosted performance to HSC Medium (with garcinol and VPA) levels | % CD34^+CD90^+CD45RA^− (added to competitor media): improved | expansion of HSC / performance (added to competitor media (SCGM, STEMSPAN ACF)): improved expansion of HSC | % CD34^+ [1]: ++ | Fold CD34^+ [1]: + | Fold TNC [1]: + | % CD34^+ [3]: ++ | % CD34^+CD90^+ [3]: ++ | % CD34^+ [2]: ++ | % CD34^+CD90^+ [2]: ++ | Fold CD34^+ [2]: ++ | Fold TNC [2]: ++
